In the NIST ThermoML archive (doi:10.1016/j.jct.2014.03.022):

Assay: xn = mol fraction of the nth substance listed
Conditions: for surface tension liquid-gas: Wilhelmy plate method; for viscosity: 101.3 kPa, Liquid, Concentric cylinders viscometry

CCCCCCCCCCO [decan-1-ol] + CN(C)C=O
Conditions	surface tension liquid-gas, 298.15 K [mN/m]	surface tension liquid-gas, 303.15 K [mN/m]	surface tension liquid-gas, 308.15 K [mN/m]	surface tension liquid-gas, 313.15 K [mN/m]	viscosity, 298.15 K [mPa·s]	viscosity, 303.15 K [mPa·s]	viscosity, 308.15 K [mPa·s]	viscosity, 313.15 K [mPa·s]
x2 = 0	28.35	27.29	26.23	25.17	11.83	9.754	8.135	6.842
x2 = 0.2361	28.83	27.74	26.67	25.61	4.984	3.776	2.992	2.357
x2 = 0.4193	29.21	28.08	26.99	25.92	2.622	1.816	1.359	0.9811
x2 = 0.5688	29.6	28.43	27.31	26.23	1.623	1.092	0.7935	0.5801
x2 = 0.6724	30.14	28.95	27.82	26.74	1.238	0.8423	0.6257	0.47
x2 = 0.7496	30.78	29.6	28.46	27.38	1.03	0.7268	0.5631	0.443
x2 = 0.8185	31.61	30.43	29.3	28.23	0.9299	0.7011	0.5754	0.479
x2 = 0.8748	32.48	31.32	30.2	29.15	0.8732	0.7131	0.6216	0.5385
x2 = 0.923	33.41	32.27	31.15	30.12	0.8501	0.7459	0.6802	0.6027
x2 = 0.9632	34.3	33.18	32.07	31.05	0.8317	0.7627	0.7103	0.6468

CCCCCCCCCO [nonan-1-ol] + CN(C)C=O
Conditions	surface tension liquid-gas, 298.15 K [mN/m]	surface tension liquid-gas, 303.15 K [mN/m]	surface tension liquid-gas, 308.15 K [mN/m]	surface tension liquid-gas, 313.15 K [mN/m]	viscosity, 298.15 K [mPa·s]	viscosity, 303.15 K [mPa·s]	viscosity, 308.15 K [mPa·s]	viscosity, 313.15 K [mPa·s]
x2 = 0	27.58	26.53	25.49	24.44	9.715	7.927	6.664	5.645
x2 = 0.2201	28.12	27.04	25.98	24.92	4.766	3.633	2.965	2.416
x2 = 0.3969	28.54	27.42	26.33	25.27	2.715	1.932	1.532	1.196
x2 = 0.5458	28.97	27.81	26.7	25.62	1.77	1.213	0.9531	0.7287
x2 = 0.6515	29.58	28.39	27.27	26.18	1.373	0.9494	0.7597	0.5913
x2 = 0.7321	30.3	29.11	27.98	26.9	1.156	0.8443	0.6817	0.5692
x2 = 0.8042	31.21	30.03	28.9	27.83	1.022	0.7978	0.6695	0.5762
x2 = 0.8644	32.19	31.02	29.9	28.85	0.9434	0.7834	0.6881	0.6071
x2 = 0.9168	33.23	32.08	30.97	29.93	0.8898	0.7837	0.7189	0.6468
x2 = 0.9596	34.2	33.07	31.97	30.95	0.8529	0.7764	0.727	0.6663

CCCCCCCCO [octan-1-ol] + CN(C)C=O
Conditions	surface tension liquid-gas, 298.15 K [mN/m]	surface tension liquid-gas, 303.15 K [mN/m]	surface tension liquid-gas, 308.15 K [mN/m]	surface tension liquid-gas, 313.15 K [mN/m]	viscosity, 298.15 K [mPa·s]	viscosity, 303.15 K [mPa·s]	viscosity, 308.15 K [mPa·s]	viscosity, 313.15 K [mPa·s]
x2 = 0	27.47	26.42	25.41	24.38	7.661	6.402	5.425	4.628
x2 = 0.2198	28.07	26.98	25.95	24.91	4.082	3.243	2.678	2.2
x2 = 0.3728	28.37	27.25	26.18	25.13	2.636	2.012	1.646	1.35
x2 = 0.5208	28.77	27.6	26.5	25.43	1.794	1.355	1.106	0.9143
x2 = 0.6277	29.36	28.17	27.05	25.97	1.41	1.089	0.8992	0.7523
x2 = 0.7118	30.1	28.9	27.77	26.7	1.193	0.9412	0.804	0.7006
x2 = 0.7877	31.04	29.85	28.72	27.66	1.052	0.8817	0.765	0.6768
x2 = 0.8519	32.05	30.88	29.76	28.7	0.9693	0.8339	0.7497	0.6694
x2 = 0.9085	33.13	31.98	30.87	29.84	0.9042	0.8153	0.7484	0.6782
x2 = 0.9556	34.15	33.03	31.92	30.9	0.8603	0.7921	0.7395	0.6802
